As a reminder, the inhibition is the relative decrease from the control value, in per cent. A lower inhibition goes with a response near the control. A word on the IC50: it is the concentration that gives 50% inhibition.

The results in this text go back to US7166618B2, “Nitrosated and nitrosylated cyclooxygenase-2 inhibitors, compositions and methods of use” (NitroMed, Inc., priority 1999, dated 2007).

“Also recorded” adds a separate entry of the source. Where only a bound is given, the exact number is not on record here.

Test [1] relates to carrageenan-induced rat paw edema. The test can be described thus: Carrageenan-induced rat paw edema test. Type of test: in vivo. Particulars: rats dosed intragastrically, paw volume 3 hours after carrageenan. The method, then:
The carrageenan-induced rat paw edema test was used to measure antiinflammatory activity. The paw edema test was performed according to the method of Winter et al, Proc. Soc. Exp. Biol. Med. 111: 544–547, 1962. Male Sprague-Dawley rats (200–250 g) were fasted for 24 hours with water ad libitum. The rats were dosed intragastrically with test compounds in a volume of 5 mL/kg. One hour after dosing the paw volume was measured. Then each rat received a subplantar injection of 50 μl of 1% suspension of carrageenan. Three hours later, the paw volume was measured and compared with the initial volume measured […]. The increase in paw volume is presented as the mean±SEM for 5 rats per group. Data were analyzed by performing an ANOVA test followed by a Student-Keuls post hoc test.
For orientation: In the carrageenan paw model, swelling and tenderness develop within hours.

Another test has as its target T1, ovine COX-1 (Ovis aries, UniProt P05979).
T1 sequence (P05979 25-600): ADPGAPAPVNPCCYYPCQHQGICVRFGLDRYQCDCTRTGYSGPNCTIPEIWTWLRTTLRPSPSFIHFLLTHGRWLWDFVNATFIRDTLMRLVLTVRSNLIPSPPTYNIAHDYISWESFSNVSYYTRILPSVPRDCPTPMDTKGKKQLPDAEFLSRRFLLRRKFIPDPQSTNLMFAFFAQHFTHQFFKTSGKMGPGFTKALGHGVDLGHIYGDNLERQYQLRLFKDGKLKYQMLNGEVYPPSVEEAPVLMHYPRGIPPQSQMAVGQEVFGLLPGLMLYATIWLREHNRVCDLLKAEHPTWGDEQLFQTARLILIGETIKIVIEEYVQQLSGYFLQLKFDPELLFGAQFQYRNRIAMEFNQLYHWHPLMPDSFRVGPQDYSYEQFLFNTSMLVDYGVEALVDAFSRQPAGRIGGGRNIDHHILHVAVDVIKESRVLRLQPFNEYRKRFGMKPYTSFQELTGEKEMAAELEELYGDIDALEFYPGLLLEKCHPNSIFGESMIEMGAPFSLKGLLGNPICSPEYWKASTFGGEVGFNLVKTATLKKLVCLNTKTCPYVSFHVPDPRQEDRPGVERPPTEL
Kind of test: biochemical. Particulars: for IC50: ovine COX-1. How it is done:
(§1) The ovine COX-1 and COX-2 activities and the measurement of the prostaglandin products synthesized were performed using the COX Inhibitor Screening Assay (Cayman Chemical, Ann Arbor, Mich., which also contained the Prostaglandin Screening EIA Kit, used for prostaglandin quantification). The test compounds were dissolved at 50 times the highest final reaction concentration in DMSO or any other suitable solvent as stock solutions. These stock solutions were then diluted in the same solvent. Eight glass test tubes (13×100 mm) were placed in a 37° C. water bath. To each test tube was added 950 μL of reaction buffer (0.1 M Tris-HCl, pH 8.0, containing 5 mM EDTA, and 2 mM phenol), 10 μL of 100 µM heme solution, and 10 μL (5 units) of either ovine COX-1 or COX-2 and the resulting mixture was incubated with the enzyme for 2 minutes. Twenty μL of the solvent was added to one tube (100% initial activity or solvent control) and 20 μL of each dilution of the test compound was added to one tube each. Each tube was vortexed immediately after the addition. The enzyme was incubated with the inhibitor for 3.5 minutes at 37° C. The enzymatic reaction was then initiated by the addition of 10 μL of freshly prepared 10 mM arachidonic acid (neutralized with KOH), vortexed and then incubated for 2 minutes at 37° C. The reaction was terminated by the addition of 50 μL of 1 M HCl, vortexed and placed at room temperature. One hundred microliters of a saturated stannous chloride solution (50 mg/mL of 0.1 M HCl) was added and the reaction mixture was allowed to stand at room temperature for at least 5 minutes.
(§2) The prostaglandins (PG) produced in the reactions were assayed, after a 2,000-fold dilution, using the Prostaglandin Screening EIA Kit (Cayman Chemical, Ann Arbor, Mich.). The assay-contains an antibody with broad specificity for all the prostaglandin families (PGF, PGE, PGD, and thromboxane B-type) synthesized in the COX-1/COX 2 reactions. The synthesized prostaglandin competes with a PG-tagged acetylcholine esterase tracer for binding to the PG antibody. Binding of synthesized PG lowers the calorimetric development of the Ellman's Reagent (computed as % B/B0). The actual amount of synthesized PG was interpolated from a standard curve using known amounts of supplied prostaglandin E2 (PGE2) (PGE2 concentration vs. % B/B0). The data generated were the mean±standard deviation of triplicate wells in the EIA for a single reaction at a given inhibitor concentration.

Test [2] deals with rat aortic smooth muscle rings. Kind of test: Relaxation of phenylephrine-contracted rat aortic smooth muscle rings. The note with it: rings precontracted with 10 μM phenylephrine; for relaxation of aortic smooth muscle ring: 100 nM to 100 μM test compound; for relaxation compared with reference NO donor (ISDN or GSNO): comparator as in the value. How it is done: Male Sprague-Dawley rats (Charles River Laboratories (Wilmington, Mass.) were euthanized by intraperiton injection of a high dose of sodium pentobarbitone (80–100 mg/kg). The thoracic aorta was rapidly excised and immediately placed in a Petri dish containing warm (37° C.) oxygenated (95% O2 and 5% CO2) Kreb's buffer (composition per millimolar: NaCl (119); KCl (4.69); CaCl2.H2O (2.52); MgSO4.7H2O (0.57); NaHCO3 (25); NaH2PO4.H2O (1.01) and glucose (11.1). Under a stereoscopic dissecting microscope, the aorta was cleaned, freed from adhering fat and connective tissues. The tissue was cut into ring segments, each approximately 2–3 mm in length.
For experiments to measure relaxation of the tissue under various conditions, a stainless steel tissue holder and an U-shaped stainless steel wire were inserted into the lumen of the aortic ring. The tissue holder anchored the ring at the bottom of the organ bath whereas the end of the U-shaped steel wire was tied with fine silk thread so that it connected to the FT-202 transducer. The tissue holder and the steel wire along with the aortic ring were then suspended in a 5-mL double-jacketed temperature-controlled glass organ bath (Radnoti Glass Technology, Inc., Monrovia, Calif.) filled with fresh Kreb's buffer. A mixture of 95% O2 and 5% CO2 was bubbled through a porous sintered disc at the bottom of the bath. The rings were given an initial resting tension of 1.5 g and the preparation was allowed to equilibrate at the initial tension for about 90 minutes. During this equilibration period, the bath fluid was changed every 15 minutes and replaced with fresh prewarmed (37° C.) Kreb's buffer. The isometric tension of the aortic muscle at rest and its response to different stimuli were recorded on a Power Macintosh 6100 computer via a MacLab 8/S computer interface (CB Sciences, Inc, Milford, Mass.) after an initial amplification through a low-noise ETH-400 bioamplifier (CB Sciences, Inc, Milford, Mass.). Contractile responsiveness of the tissue strips was established with 10 μM phenylephrine and the strips were incubated with the drug for 20 minutes to establish a steady level of contraction. To test the relaxation effects, test compounds were added to the phenylephrine-precontracted strips in the tissue bath at cumulative concentrations of 0.1 μM to 0.1 mM. Concentration of test compounds was increased only after relaxation at the previous concentration had reached a plateau level.

The next test has as its target T2, ovine COX-2 (Ovis aries, UniProt P79208).
T2 sequence (P79208 17-603): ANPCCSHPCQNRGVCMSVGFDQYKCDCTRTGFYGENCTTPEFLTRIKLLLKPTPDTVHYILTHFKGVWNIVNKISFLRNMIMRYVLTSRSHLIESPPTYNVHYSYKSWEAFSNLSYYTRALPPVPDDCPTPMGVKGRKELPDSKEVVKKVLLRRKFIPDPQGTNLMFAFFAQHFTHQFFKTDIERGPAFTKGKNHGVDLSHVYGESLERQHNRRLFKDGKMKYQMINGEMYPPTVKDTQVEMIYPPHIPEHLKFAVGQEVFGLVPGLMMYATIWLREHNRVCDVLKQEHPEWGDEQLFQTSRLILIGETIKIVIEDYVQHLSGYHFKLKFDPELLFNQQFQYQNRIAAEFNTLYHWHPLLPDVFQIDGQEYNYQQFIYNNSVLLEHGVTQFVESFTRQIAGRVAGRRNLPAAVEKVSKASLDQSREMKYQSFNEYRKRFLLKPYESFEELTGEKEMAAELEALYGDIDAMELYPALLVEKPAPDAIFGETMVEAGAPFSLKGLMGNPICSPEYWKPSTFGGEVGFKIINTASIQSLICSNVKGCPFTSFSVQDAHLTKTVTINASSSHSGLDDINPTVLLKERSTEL
Kind of test: biochemical. It is filed as biochemical. Particulars: for IC50: ovine COX-2, read-out: COX-2 IC50. How it is done: as §1, §2

For `NS(=O)(=O)c1ccc(-c2c(-c3ccccc3)noc2CO)cc1` [Example 2a, 4-(5-(Hydroxymethyl)-3-phenylisoxazol-4-yl)benzenesulfonamide, reference compound], the “paw volume (antiinflammatory activity)” value in test [1] is listed as “reduced the paw volume”. The inhibition at 100 µM on ovine COX-1 (Ovine COX-1 (footnote a), at 100 μM) worked out at 0%. Moreover, the IC50 against ovine COX-1 is greater than 300 µM. In test [2], the “relaxation of aortic smooth muscle ring” value was “did not relax the tissue; also recorded: did not relax the aortic ring”.
Turning to `CS(=O)(=O)c1ccc(-c2nc3cc(CO)ccn3c2-c2ccc(F)cc2)cc1` [Example 5a, 1-(3-(4-Fluorophenyl)-7-(hydroxymethyl)(3a-hydroimidazolo(1,2-a)pyridin-2-yl))-4-(methylsulfonyl)benzene, reference compound], the IC50 on ovine COX-1 is greater than 300 µM; on ovine COX-2 it was 12 µM.
`NS(=O)(=O)c1ccc(-n2nc(CO[N+](=O)[O-])cc2-c2ccc(Cl)cc2)cc1` [Example 1b, 4-(5-(4-Chlorophenyl)-3-((nitrooxy)methyl)-3-hydropyrazolyl) benzenesulfonamide] yielded an IC50 against ovine COX-1 of 190 µM. Also, in test [2], the “relaxation of aortic smooth muscle ring” value is recorded as “induced the relaxation of the aortic ring” and the “relaxation compared with reference NO donor (ISDN or GSNO)” value was “more potent than that obtained by the nitrate compound, isosorbide dinitrate”. The IC50 on ovine COX-2 stood at 10 µM.
Take `Cc1onc(-c2ccccc2)c1-c1ccc(S(=O)(=O)NC(=O)CCC(=O)OCCC2(SN=O)CCN(C)CC2)cc1.O=C(O)CC(O)(CC(=O)O)C(=O)O` [Example 3g, 2-(1-Methyl-4-(nitrosothio)-4-piperidyl)ethyl 3-(N-((4-(5-methyl-3-phenylisoxazol-4-yl)phenyl)sulfonyl)carbamoyl)propanoate Citrate Salt]: the IC50 is greater than 300 µM on ovine COX-1 and 70 µM at ovine COX-2. For the same compound, the “relaxation of aortic smooth muscle ring” value in test [2] is listed as “induced the relaxation of the aortic ring”. The “relaxation compared with reference NO donor (ISDN or GSNO)” value in test [2] (Citrate Salt) is on record as “comparable to that obtained with GSNO”. The “COX-2 inhibition potency compared with the parent compound” value on ovine COX-2 (ovine enzymes, from Table 1) was “not as potent as the parent non-nitrosylated compound”.
Regarding `Cc1ccc(-c2cc(C(F)(F)F)nn2-c2ccc(S(N)(=O)=O)cc2)cc1` [Celecoxib, 4-(5-(4-methylphenyl)-3-(trifluoromethyl)-1H-pyrazol-1-yl)benzenesulfonamide], the “paw volume (antiinflammatory activity)” value in test [1] is “reduced the paw volume”.
